One data set relates to A. fumigatus. Briefly: Minimal inhibitory concentration (MIC) against A. fumigatus. It is filed as cell-based. As to conditions: Aspergillus fumigatus; minimal concentration that inhibits growth.
A further data set relates to C. glabrata. Briefly: Minimal fungicidal concentration (MFC) against C. glabrata. The data set is classed as cell-based, Candida glabrata. As to conditions: Nakaseomyces glabratus; 24 h at 37° C. in PBS; less than 1% survival relative to DMSO control. The procedure: (§1) Two-fold dilution series of the compounds were prepared in 50% DMSO. 5 μl of these series were added to 95 μl PBS buffer inoculated with 1/500 cells of an overnight culture of either C. albicans, C. glabrata or C. krusei (final DMSO conc 2%). 2% DMSO served as negative control. After 24 h incubation at 37° C. of these cultures with the antifungal compounds in PBS, the cell cultures were plated on YPD agar and colony forming units (CFUs) were determined after incubation of the plates for 2 days. MFC was determined as the minimal concentration of a compound resulting in less than 1% survival of the yeast culture relative to the DMSO control.

The next data set concerns Aspergillus flavus. The experiment in a line: Minimal inhibitory concentration (MIC) against A. flavus. The data set is classed as cell-based. As to conditions: 24 h at 25° C. in ½ PDB, minimal concentration that inhibits growth. The procedure:
(§2) To determine the MIC and MFC of a compound against Aspergillus flavus, Fusarium oxysporum or F. culmorum, a 2-fold dilution series of the compounds of the invention was incubated with the corresponding spore suspension in ½ PDB (potato dextrose broth, Difco) (2×10^4 spores/ml). […] MFC was determined as the minimal concentration of a compound resulting in less than 1% survival of the fungal culture relative to the DMSO control.

The test system of another data set is HepG2 cells. Briefly: Cellular cytostatic and/or cytotoxic effect on HepG2 cells. The data set is classed as cell-based. The method, then: Evaluation of the cytostatic and/or cytotoxic effect of compounds on certain specific eukaryotic cells is a standard procedure and well known to the person skilled in the art. The effect of a selection of compounds of the invention on the proliferation of HepG2 cells was measured.

The subject of another data set is Fusarium oxysporum. The experiment in a line: Minimal inhibitory concentration (MIC) against F. oxysporum. It is filed as cell-based. As to conditions: 24 h at 25° C. in ½ PDB, minimal concentration that inhibits growth. The method, then: as §2
The test system of data set [1] is C. albicans SC5314. Briefly: Minimal fungicidal concentration (MFC) against C. albicans. It is filed as cell-based. As to conditions: Candida albicans, 24 h at 37° C. in PBS, less than 1% survival relative to DMSO control. The procedure:
as §1

The subject of data set [2] is C. albicans SC5314. The experiment in a line: C. elegans model for C. albicans infection. The data set is classed as in vivo. As to conditions: different concentrations; FIG. 1. The method, then: The in vivo efficacy of the compounds was assessed in a C. elegans model for Candida infection as described by Breger et al., 2007 (Breger, J., et al. 2007. PLoS Pathog. 3:[…]). To this end, L4 larvae of a double mutant (glp-[…]) of C. elegans were used and fed for 4 h on C. albicans SC5314 agar plates (YPD agar plates on the surface inoculated with 100 μl of an overnight culture in YPD and incubated for 16 h at 37° C.). Worms were collected and washed with M9 buffer containing 3 g/L KH2PO4, 6 g/L Na2HPO4, 5 g/L NaCl, 1 mM MgSO4, 10 μg/mL cholesterol and 100 μg/mL Kanamycin. Forty-to-fifty worms were suspended in 1 mL in each well of 24-well microtiterplates, in the presence or absence (DMSO control) of the compounds of the invention (at different concentrations). Survival of the worms was monitored daily. The percentage survival of the worms in the presence or absence of antifungal compounds was calculated each day relative to the survival at day 0. Data are means of duplicate measurements and experiments were performed at least twice. As positive controls for efficacy testing, amphotericin B (10 μg/ml) and miconazole (10 μg/ml) in DMSO can be used.

Data set [3] concerns C. albicans SC5314. Briefly: Mouse model for Candidiasis, fungal burden in the kidney. As to conditions: 10 mg/kg intraperitonealy, once or twice a day; kidneys 5 days after infection; FIG. 2. The data set is classed as in vivo, BALB/c mice. From the text:
An assay for in vivo efficacy measurement using mouse model for Candidiasis Fungal burden in the kidney of infected mice was used to evaluate the (prophylactic and/or therapeutic) activity of the compounds of the invention in murine models of infection by C. albicans, as described in the prior art (Tavares P M et al. Antimicrob Agents Chemother. 2008 December; 52(12):4522-5; Clemons K V, D A Stevens, J Antimicrob. Chemother. 2001; 47:183-186; Okawa Yet al., Biol Pharm Bull 2007, 30:1870-1873). In general, mice can be inoculated intravenously via lateral tail vein with 2×10^5 to […] C. albicans yeast cells suspended in saline. The compounds can be administered (for example intravenously or intraperitonealy or orally) before (for example 1 hour before) or after (for example 16 hours after) the challenge with C. albicans. After this first injection, four similar subsequent injections can be made with 24 h or other intervals. […] 100 μl-samples can be plated onto solid brain heart infusion (BHI) plates and C. albicans CFU (colony forming units) are counted after 2 days.
More specifically, the in vivo experiment was performed as following (in accordance with Tavares P M et al. Antimicrob Agents Chemother. 2008 December; 52(12):4522-5). […] 100 μl-samples were plated onto solid brain heart infusion (BHI) plates and C. albicans CFU (colony forming units) were counted after 2 days. […]

This is an account of results in patent US20120252801A1, “ANTIFUNGAL COMPOUNDS” (Katholieke Universiteit Leuven, K.U.Leuven R&D, priority 2009, published 2012).

Molecules are shown by their SMILES. In brackets after ≈: the same amount, converted by molar mass.

A word on the MIC: it is the smallest concentration in the dilution series that meets the test's criterion for growth inhibition. Low readings indicate inhibition by little substance, high ones a need for much substance. One may read the MFC as the smallest concentration meeting the test's criterion for killing the fungus. Lower therefore signals greater fungicidal potency. With `CCN1CC(C)(C)OC(=O)C1CC(=O)NCc1cccc(Cl)c1` (stereo not shown) [CPD-49, N-(3-chlorobenzyl)-2-(4-ethyl-6,6-dimethyl-2-oxomorpholin-3-yl)acetamide], the figures for the minimal inhibitory concentration (MIC) in the data set on A. fumigatus, against Aspergillus flavus and in the data set with Fusarium oxysporum were 3.12 µg/mL (≈ 9.22 µM), 50 µg/mL (≈ 148 µM) and 50 µg/mL (≈ 148 µM), respectively. The MFC with C. glabrata and in the data set on C. albicans SC5314 [1] was 6.25 µg/mL (≈ 18.4 µM) each time. Besides, the “LD30 48 h (lethal dose for 30% of the cells in culture)” value in the data set on HepG2 cells is over 25 µM.
With `CCN1CC(C)(C)OC(=O)C1CC(=O)Nc1ccc2c(ccn2C)c1` (stereo not shown) [CPD-07, 2-(4-ethyl-6,6-dimethyl-2-oxomorpholin-3-yl)-N-(1-methyl-1H-indol-5-yl)acetamide], the MIC with A. fumigatus came to 3.12 µg/mL (≈ 9.1 µM); against Aspergillus flavus, 25 µg/mL (≈ 72.8 µM); in the data set with Fusarium oxysporum it was 50 µg/mL (≈ 146 µM). Besides, the values for the MFC against C. glabrata and in the data set on C. albicans SC5314 [1] were 50 µg/mL (≈ 146 µM) and 12.5 µg/mL (≈ 36.4 µM), respectively. Besides, the “LD30 48 h (lethal dose for 30% of the cells in culture)” value with HepG2 cells was over 25 µM.
On to `CCN1CC(C)(C)OC(=O)C1CC(=O)Nc1ccc(C(C)C)cc1` (stereo not shown) [CPD-06, 2-(4-ethyl-6,6-dimethyl-2-oxomorpholin-3-yl)-N-(4-isopropylphenyl)acetamide], for which the “% survival of C. albicans infected C. elegans” value with C. albicans SC5314 [2] is “increase in survival”. The minimal inhibitory concentration (MIC) came to 1.6 µg/mL (≈ 4.81 µM) with A. fumigatus, 12.5 µg/mL (≈ 37.6 µM) with Aspergillus flavus and 50 µg/mL (≈ 150 µM) in the data set with Fusarium oxysporum. Further, the minimum fungicidal concentration (MFC) is 25 µg/mL (≈ 75.2 µM) in the data set with C. glabrata and 12.5 µg/mL (≈ 37.6 µM) in the data set with C. albicans SC5314 [1]. For the same compound, in the data set on HepG2 cells, the “LD30 48 h (lethal dose for 30% of the cells in culture)” value is over 25 µM. Moreover, in the data set with C. albicans SC5314 [3], the “activity against Candida albicans infection (CFU from kidneys)” value is listed as “strong activity”.
`CCN1CC(C)(C)OC(=O)C1CC(=O)NCc1cccs1` (stereo not shown) [CPD-22, 2-(4-ethyl-6,6-dimethyl-2-oxomorpholin-3-yl)-N-(thiophen-2-ylmethyl)acetamide]: the MIC came to 25 µg/mL (≈ 80.5 µM) against A. fumigatus, 50 µg/mL (≈ 161 µM) against Aspergillus flavus and 50 µg/mL (≈ 161 µM) against Fusarium oxysporum. For the same compound, the MFC is 50 µg/mL (≈ 161 µM) with C. glabrata and 25 µg/mL (≈ 80.5 µM) in the data set on C. albicans SC5314 [1]. Besides, the “LD30 48 h (lethal dose for 30% of the cells in culture)” value in the data set on HepG2 cells was over 25 µM.
For `CCN1CC(C)(C)OC(=O)C1CC(=O)NCc1ccc(Cl)cc1` (stereo not shown) [CPD-08, N-(4-chlorobenzyl)-2-(4-ethyl-6,6-dimethyl-2-oxomorpholin-3-yl)acetamide], the minimal inhibitory concentration (MIC) in the data set on A. fumigatus stood at 6.25 µg/mL (≈ 18.4 µM); in the data set with Aspergillus flavus, 25 µg/mL (≈ 73.8 µM); in the data set with Fusarium oxysporum, 50 µg/mL (≈ 148 µM). The MFC in the data set with C. glabrata and with C. albicans SC5314 [1] was 12.5 µg/mL (≈ 36.9 µM) in each case. Besides, in the data set with HepG2 cells, the “LD30 48 h (lethal dose for 30% of the cells in culture)” value was over 25 µM.
Consider `CCN1CC(C)(C)OC(=O)C1CC(=O)NCc1c(Cl)cccc1Cl` (stereo not shown) [CPD-51, N-(2,6-dichlorobenzyl)-2-(4-ethyl-6,6-dimethyl-2-oxomorpholin-3-yl)acetamide], for which the MIC against A. fumigatus was determined as 12.5 µg/mL (≈ 33.5 µM); against Aspergillus flavus, 50 µg/mL (≈ 134 µM); in the data set on Fusarium oxysporum it was 50 µg/mL (≈ 134 µM). Further, the MFC in the data set with C. glabrata came out at 25 µg/mL (≈ 67 µM); in the data set on C. albicans SC5314 [1] it was 12.5 µg/mL (≈ 33.5 µM). Moreover, in the data set on HepG2 cells, the “LD30 48 h (lethal dose for 30% of the cells in culture)” value was over 25 µM.
For `CCCNC(=O)CC1C(=O)OC(C)(C)CN1CC` (stereo not shown) [CPD-36, 2-(4-ethyl-6,6-dimethyl-2-oxomorpholin-3-yl)-N-propylacetamide], the minimum inhibitory concentration (MIC) is 50 µg/mL (≈ 195 µM) against A. fumigatus, over 50 µg/mL with Aspergillus flavus and over 50 µg/mL in the data set on Fusarium oxysporum. Further, the MFC in the data set on C. glabrata was over 50 µg/mL; in the data set on C. albicans SC5314 [1], 25 µg/mL (≈ 97.5 µM).
On to `CCN1CC(C)(C)OC(=O)C1CC(=O)NCC1CCCCC1` (stereo not shown) [CPD-47, N-(cyclohexylmethyl)-2-(4-ethyl-6,6-dimethyl-2-oxomorpholin-3-yl)acetamide], for which the MIC in the data set with A. fumigatus is 25 µg/mL (≈ 80.5 µM); in the data set on Aspergillus flavus, 50 µg/mL (≈ 161 µM); against Fusarium oxysporum, over 50 µg/mL. Also, the minimum fungicidal concentration (MFC) against C. glabrata is 6.25 µg/mL (≈ 20.1 µM); in the data set with C. albicans SC5314 [1], 25 µg/mL (≈ 80.5 µM).
On to `CCN1CC(C)(C)OC(=O)C1CC(=O)NCc1cccc(-c2ccccc2)c1` (stereo not shown) [CPD-82, N-(biphenyl-3-ylmethyl)-2-(4-ethyl-6,6-dimethyl-2-oxomorpholin-3-yl)acetamide], for which the values for the MIC against A. fumigatus, against Aspergillus flavus and against Fusarium oxysporum were 3.12 µg/mL (≈ 8.21 µM), 25 µg/mL (≈ 65.7 µM) and 25 µg/mL (≈ 65.7 µM), respectively. The MFC against C. glabrata and in the data set with C. albicans SC5314 [1] was 12.5 µg/mL (≈ 32.9 µM) each time.
For the compound `CCN1CC(C)(C)OC(=O)C1CC(=O)NCCC(C)(C)C` (stereo not shown) [CPD-38, N-(3,3-dimethylbutyl)-2-(4-ethyl-6,6-dimethyl-2-oxomorpholin-3-yl)acetamide], the MIC against A. fumigatus, against Aspergillus flavus and against Fusarium oxysporum was 50 µg/mL (≈ 168 µM) throughout. The values for the minimum fungicidal concentration (MFC) in the data set on C. glabrata and in the data set with C. albicans SC5314 [1] were 12.5 µg/mL (≈ 41.9 µM) and 25 µg/mL (≈ 83.8 µM), respectively.
